According to publication PMC6199744, “Development of Chemical Proteomics for the Folateome and Analysis of the Kinetoplastid Folateome” (ACS Infectious Diseases, 2018):
Read-outs that look alike come from different tables or passages of the source.

What was measured:
Type in all cases: binding
[1] = molecular target: T1, HeLa cell extract proteins (Homo sapiens, UniProt O00303)
T1 construct: endogenous in cells; host or cells: HeLa cell extract

[2] = molecular target: T2, HeLa cell extract proteins (Homo sapiens, UniProt O43148)
T2 construct: endogenous in cells; host or cells: HeLa cell extract

[3] = molecular target: T3, HeLa cell extract proteins (Homo sapiens, UniProt O75340)
T3 construct: endogenous in cells; host or cells: HeLa cell extract

[4] = molecular target: T4, HeLa cell extract proteins (Homo sapiens, UniProt O94822)
T4 construct: endogenous in cells; host or cells: HeLa cell extract

[5] = molecular target: T5, HeLa cell extract proteins (Homo sapiens, UniProt O95714)
T5 construct: endogenous in cells; host or cells: HeLa cell extract

[6] = molecular target: T6, HeLa cell extract proteins (Homo sapiens, UniProt P10515)
T6 construct: endogenous in cells; host or cells: HeLa cell extract
T6 sequence (P10515 87-647): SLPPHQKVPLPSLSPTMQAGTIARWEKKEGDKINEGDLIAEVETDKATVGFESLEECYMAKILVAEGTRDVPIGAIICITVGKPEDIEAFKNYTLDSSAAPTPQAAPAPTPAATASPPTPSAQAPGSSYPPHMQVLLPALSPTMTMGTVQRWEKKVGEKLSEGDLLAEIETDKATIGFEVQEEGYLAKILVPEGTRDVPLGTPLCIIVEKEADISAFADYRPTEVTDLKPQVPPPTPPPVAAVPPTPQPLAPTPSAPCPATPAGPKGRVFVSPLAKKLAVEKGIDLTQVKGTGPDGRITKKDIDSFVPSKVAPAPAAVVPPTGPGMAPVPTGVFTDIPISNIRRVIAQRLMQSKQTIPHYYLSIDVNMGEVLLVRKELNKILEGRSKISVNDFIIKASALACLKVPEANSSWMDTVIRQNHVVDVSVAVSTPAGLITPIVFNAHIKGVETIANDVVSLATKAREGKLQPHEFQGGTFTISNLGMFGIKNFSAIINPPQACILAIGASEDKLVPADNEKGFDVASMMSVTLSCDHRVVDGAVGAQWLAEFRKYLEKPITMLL

[7] = molecular target: T7, HeLa cell extract proteins (Homo sapiens, UniProt P10809)
T7 construct: endogenous in cells; host or cells: HeLa cell extract

[8] = molecular target: T8, HeLa cell extract proteins (Homo sapiens, UniProt P14618)
T8 construct: endogenous in cells; host or cells: HeLa cell extract

[9] = molecular target: T9, HeLa cell extract proteins (Homo sapiens, UniProt P32119)
T9 construct: endogenous in cells; host or cells: HeLa cell extract
T9 sequence (P32119 1-198): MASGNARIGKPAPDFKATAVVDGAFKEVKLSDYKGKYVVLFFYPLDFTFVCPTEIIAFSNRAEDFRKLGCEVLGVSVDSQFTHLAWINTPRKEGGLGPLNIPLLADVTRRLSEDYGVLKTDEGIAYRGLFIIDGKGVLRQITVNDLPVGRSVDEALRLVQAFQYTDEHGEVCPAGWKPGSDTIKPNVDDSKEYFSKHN

[10] = molecular target: T10, HeLa cell extract proteins (Homo sapiens, UniProt P35232)
T10 construct: endogenous in cells; host or cells: HeLa cell extract
T10 sequence (P35232 1-272): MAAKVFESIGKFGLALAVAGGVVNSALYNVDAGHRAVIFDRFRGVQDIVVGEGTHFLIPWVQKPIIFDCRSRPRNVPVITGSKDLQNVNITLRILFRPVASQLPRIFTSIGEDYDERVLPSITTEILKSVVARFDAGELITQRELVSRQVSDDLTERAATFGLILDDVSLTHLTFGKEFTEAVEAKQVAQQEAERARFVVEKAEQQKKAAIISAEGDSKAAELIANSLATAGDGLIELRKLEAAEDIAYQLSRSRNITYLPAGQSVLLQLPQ

[11] = molecular target: T11, HeLa cell extract proteins (Homo sapiens, UniProt P37802)
T11 construct: endogenous in cells; host or cells: HeLa cell extract

[12] = molecular target: T12, HeLa cell extract proteins (Homo sapiens, UniProt Q14258)
T12 construct: endogenous in cells; host or cells: HeLa cell extract

[13] = molecular target: T13, HeLa cell extract proteins (Homo sapiens, UniProt Q16576)
T13 construct: endogenous in cells; host or cells: HeLa cell extract

[14] = molecular target: T14, HeLa cell extract proteins (Homo sapiens, UniProt Q3ZCQ8)
T14 construct: endogenous in cells; host or cells: HeLa cell extract

[15] = molecular target: T15, HeLa cell extract proteins (Homo sapiens, UniProt Q63HN8)
T15 construct: endogenous in cells; host or cells: HeLa cell extract

[16] = molecular target: T16, HeLa cell extract proteins (Homo sapiens, UniProt Q96P70)
T16 construct: endogenous in cells; host or cells: HeLa cell extract

[17] = molecular target: T17, HeLa cell extract proteins (Homo sapiens, UniProt Q9BW27)
T17 construct: endogenous in cells; host or cells: HeLa cell extract
T17 sequence (Q9BW27 1-656): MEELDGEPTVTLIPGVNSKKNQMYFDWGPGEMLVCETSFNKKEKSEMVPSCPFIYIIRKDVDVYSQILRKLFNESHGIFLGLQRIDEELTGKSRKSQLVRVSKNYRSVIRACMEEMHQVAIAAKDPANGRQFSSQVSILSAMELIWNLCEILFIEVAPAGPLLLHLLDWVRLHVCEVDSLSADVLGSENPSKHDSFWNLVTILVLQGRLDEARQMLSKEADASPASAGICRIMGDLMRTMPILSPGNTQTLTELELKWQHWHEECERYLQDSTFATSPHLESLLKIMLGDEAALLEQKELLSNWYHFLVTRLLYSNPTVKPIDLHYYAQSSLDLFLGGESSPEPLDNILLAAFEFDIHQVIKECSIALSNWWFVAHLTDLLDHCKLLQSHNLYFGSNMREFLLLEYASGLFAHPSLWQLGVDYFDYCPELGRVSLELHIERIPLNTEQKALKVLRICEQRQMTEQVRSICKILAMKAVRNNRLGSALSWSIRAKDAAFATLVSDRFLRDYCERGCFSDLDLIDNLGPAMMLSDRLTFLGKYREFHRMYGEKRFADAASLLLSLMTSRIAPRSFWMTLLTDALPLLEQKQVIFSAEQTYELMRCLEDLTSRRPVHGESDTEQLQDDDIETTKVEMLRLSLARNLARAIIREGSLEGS

[18] = HeLa, protein PKM2 (CDNA FLJ56065, HIGHLY SIMILAR TO PYRUVATE KINASE ISOZYME M1.)
[19] = HeLa, protein PDCD6 (PROGRAMMED CELL DEATH PROTEIN 6)
[20] = HeLa, protein DLAT (DIHYDROLIPOYLLYSINE-RESIDUE ACETYLTRANSFERASE COMPONENT OF PYRUVATE DEHYDROGENASE COMPLEX, MITOCHONDRIAL)

T3 sequence (O75340 whole entry): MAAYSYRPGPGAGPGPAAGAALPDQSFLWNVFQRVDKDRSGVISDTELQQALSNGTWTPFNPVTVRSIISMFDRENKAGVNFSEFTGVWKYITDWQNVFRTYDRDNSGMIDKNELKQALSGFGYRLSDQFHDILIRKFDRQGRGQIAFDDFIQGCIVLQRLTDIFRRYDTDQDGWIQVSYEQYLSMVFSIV
T12 sequence (Q14258 whole entry): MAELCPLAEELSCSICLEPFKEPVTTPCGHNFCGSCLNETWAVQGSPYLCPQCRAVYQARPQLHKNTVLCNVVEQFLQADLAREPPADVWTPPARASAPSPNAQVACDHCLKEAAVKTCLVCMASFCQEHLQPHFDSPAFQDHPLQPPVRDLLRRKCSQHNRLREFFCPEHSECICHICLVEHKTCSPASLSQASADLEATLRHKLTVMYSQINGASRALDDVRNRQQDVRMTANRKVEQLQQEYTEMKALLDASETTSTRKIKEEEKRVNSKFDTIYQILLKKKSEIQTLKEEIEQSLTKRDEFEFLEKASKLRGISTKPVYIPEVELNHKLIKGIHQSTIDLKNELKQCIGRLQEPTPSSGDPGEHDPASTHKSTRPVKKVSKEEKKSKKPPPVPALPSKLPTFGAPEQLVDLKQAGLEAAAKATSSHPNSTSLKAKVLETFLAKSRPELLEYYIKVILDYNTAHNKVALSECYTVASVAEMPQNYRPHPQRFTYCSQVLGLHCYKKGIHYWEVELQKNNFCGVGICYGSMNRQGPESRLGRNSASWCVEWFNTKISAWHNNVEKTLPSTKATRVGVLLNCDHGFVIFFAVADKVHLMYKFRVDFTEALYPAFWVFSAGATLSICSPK
T13 sequence (Q16576 whole entry): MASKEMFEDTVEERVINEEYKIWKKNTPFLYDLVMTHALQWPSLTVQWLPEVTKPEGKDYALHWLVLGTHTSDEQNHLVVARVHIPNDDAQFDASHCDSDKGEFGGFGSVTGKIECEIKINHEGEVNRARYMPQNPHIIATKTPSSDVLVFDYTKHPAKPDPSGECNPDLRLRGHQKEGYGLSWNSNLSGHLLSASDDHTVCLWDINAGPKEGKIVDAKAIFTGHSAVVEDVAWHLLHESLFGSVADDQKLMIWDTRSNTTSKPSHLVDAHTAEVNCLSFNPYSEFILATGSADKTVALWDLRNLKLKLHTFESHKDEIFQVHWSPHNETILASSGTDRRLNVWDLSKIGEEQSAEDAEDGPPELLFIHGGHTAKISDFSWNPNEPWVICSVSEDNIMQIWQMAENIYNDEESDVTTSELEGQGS
T11 sequence (P37802 whole entry): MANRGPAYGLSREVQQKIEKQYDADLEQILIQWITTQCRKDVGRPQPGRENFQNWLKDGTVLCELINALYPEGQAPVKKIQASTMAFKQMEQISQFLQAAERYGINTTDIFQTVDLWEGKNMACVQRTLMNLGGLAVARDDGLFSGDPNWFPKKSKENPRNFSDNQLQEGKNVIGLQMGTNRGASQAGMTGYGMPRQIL
T16 sequence (Q96P70 whole entry): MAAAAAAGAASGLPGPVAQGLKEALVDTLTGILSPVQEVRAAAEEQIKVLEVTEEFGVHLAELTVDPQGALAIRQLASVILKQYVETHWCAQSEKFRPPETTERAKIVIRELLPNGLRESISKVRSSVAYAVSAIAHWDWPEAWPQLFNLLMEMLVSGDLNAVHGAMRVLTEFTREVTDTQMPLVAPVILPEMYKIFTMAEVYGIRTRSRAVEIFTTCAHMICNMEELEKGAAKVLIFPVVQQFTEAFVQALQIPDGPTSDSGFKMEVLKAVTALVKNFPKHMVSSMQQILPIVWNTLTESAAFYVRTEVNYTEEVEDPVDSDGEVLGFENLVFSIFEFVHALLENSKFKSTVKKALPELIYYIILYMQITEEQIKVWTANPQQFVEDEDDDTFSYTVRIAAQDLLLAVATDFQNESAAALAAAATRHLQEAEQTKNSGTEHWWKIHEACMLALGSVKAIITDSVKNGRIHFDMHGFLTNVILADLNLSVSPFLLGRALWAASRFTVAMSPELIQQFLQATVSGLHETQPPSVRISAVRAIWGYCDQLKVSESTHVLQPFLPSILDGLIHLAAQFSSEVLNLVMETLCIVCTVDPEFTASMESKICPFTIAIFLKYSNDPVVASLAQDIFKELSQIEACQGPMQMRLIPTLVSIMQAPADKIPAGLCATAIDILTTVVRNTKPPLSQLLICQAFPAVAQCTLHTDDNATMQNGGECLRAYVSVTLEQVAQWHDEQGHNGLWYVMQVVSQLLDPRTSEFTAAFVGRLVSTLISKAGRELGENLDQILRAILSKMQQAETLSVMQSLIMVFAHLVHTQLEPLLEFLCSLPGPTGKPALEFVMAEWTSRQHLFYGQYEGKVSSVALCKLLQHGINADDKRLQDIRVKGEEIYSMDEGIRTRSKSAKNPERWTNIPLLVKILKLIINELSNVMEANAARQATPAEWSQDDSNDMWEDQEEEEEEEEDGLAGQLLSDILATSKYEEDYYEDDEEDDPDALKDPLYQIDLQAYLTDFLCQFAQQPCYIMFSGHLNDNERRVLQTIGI
T8 sequence (P14618 whole entry): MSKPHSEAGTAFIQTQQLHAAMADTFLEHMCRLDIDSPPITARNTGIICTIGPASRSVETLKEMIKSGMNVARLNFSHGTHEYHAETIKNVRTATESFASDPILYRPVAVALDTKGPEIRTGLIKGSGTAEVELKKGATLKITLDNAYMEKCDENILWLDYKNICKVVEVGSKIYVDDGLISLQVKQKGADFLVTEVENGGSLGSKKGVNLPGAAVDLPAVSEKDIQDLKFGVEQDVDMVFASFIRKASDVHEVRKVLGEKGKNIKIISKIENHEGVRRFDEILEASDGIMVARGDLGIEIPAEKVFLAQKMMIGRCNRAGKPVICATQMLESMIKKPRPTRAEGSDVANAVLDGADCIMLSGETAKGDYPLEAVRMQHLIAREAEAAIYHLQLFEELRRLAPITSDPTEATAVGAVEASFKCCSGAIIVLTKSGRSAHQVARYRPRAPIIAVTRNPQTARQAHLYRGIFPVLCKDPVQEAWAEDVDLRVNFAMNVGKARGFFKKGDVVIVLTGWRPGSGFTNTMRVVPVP
T4 sequence (O94822 whole entry): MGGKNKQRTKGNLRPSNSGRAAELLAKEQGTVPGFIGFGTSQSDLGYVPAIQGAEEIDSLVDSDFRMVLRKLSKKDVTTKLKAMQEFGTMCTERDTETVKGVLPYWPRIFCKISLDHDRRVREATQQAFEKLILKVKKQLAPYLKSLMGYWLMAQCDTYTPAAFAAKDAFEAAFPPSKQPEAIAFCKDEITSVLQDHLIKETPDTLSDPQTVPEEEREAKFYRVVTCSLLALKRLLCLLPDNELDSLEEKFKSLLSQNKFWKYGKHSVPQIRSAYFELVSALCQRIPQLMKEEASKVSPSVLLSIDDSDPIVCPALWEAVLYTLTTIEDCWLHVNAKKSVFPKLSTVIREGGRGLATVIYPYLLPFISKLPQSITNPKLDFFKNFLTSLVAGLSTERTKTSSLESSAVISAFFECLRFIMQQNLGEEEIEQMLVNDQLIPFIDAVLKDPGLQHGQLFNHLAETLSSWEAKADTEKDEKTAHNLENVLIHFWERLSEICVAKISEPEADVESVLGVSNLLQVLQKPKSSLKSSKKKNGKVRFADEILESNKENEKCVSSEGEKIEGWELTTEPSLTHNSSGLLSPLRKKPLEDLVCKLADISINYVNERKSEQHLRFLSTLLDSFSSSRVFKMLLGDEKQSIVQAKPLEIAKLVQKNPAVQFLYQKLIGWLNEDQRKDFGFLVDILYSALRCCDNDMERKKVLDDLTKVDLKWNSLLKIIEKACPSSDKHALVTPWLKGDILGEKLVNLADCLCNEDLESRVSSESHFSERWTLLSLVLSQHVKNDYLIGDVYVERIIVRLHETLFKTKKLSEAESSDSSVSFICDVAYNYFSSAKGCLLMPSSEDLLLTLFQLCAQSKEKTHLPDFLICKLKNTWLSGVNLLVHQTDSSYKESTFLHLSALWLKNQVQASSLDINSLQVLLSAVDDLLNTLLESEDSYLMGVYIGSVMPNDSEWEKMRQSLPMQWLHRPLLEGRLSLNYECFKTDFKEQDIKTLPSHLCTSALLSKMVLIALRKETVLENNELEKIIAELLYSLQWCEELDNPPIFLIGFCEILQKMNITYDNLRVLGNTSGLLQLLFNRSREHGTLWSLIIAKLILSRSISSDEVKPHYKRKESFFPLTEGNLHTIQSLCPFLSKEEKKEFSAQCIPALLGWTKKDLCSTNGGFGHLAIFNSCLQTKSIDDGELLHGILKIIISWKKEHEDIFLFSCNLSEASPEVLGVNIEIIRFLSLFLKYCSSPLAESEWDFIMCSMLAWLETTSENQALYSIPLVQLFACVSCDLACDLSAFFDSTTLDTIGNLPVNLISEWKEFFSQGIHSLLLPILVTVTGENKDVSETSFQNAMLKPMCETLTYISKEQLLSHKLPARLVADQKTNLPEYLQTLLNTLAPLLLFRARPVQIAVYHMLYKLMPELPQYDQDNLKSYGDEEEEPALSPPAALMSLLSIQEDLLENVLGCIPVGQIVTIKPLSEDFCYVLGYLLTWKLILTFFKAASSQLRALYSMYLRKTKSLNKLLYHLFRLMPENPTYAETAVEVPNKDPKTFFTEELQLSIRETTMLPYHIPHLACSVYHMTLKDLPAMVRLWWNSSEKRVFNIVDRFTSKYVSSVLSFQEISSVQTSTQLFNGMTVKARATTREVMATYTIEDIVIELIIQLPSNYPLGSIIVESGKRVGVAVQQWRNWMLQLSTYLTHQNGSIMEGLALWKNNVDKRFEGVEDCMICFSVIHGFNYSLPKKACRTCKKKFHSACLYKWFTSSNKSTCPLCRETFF

Row | Structure (SMILES) | fold changes relative to vehicle control ([1]; HeLa, protein EIF3F) | fold changes relative to vehicle control ([2]; HeLa, protein RNMT) | fold changes relative to vehicle control ([3]; HeLa, protein PDCD6) | fold changes relative to vehicle control ([4]; captured protein RNF160, HeLa) | fold changes relative to vehicle control ([5]; protein HERC2, HeLa) | fold changes relative to vehicle control ([6]; protein DLAT, HeLa) | fold changes relative to vehicle control ([7]; protein HSPD1, HeLa) | fold changes relative to vehicle control [8, 18] | fold changes relative to vehicle control ([9]; protein PRDX2, HeLa) | fold changes relative to vehicle control ([10]; protein PHB, HeLa) | fold changes relative to vehicle control ([11]; protein TAGLN2, HeLa) | fold changes relative to vehicle control ([12]; HeLa, protein TRIM25) | fold changes relative to vehicle control ([13]; protein RBBP7, HeLa) | fold changes relative to vehicle control ([14]; captured protein TIMM50, HeLa) | fold changes relative to vehicle control ([15]; protein KIAA1618, HeLa) | fold changes relative to vehicle control ([16]; captured protein IPO9, HeLa) | fold changes relative to vehicle control ([17]; captured protein NUP85, HeLa) | fold changes relative to vehicle control ([1]; protein EIF3F, HeLa) | fold changes relative to vehicle control ([2]; HeLa, captured protein RNMT) | fold changes relative to vehicle control [3, 19] | other results
1 | Nc1nc2cccc(-c3ccccc3)c2n1Cc1ccc(Cl)c(Cl)c1 [compound 3] | 1.05 | 0.93 | 1.07 | 1.13 | 1.08 | 1.1 | 1.03 | 0.99 fold | 0.89 | 0.93 | 0.85 | 0.97 | 0.85 | 0.99 | 1.04 | 1.07 | 0.9 |  |  |  | 
2 | CCCCCCOc1ccc(Cc2cnc(N)nc2N)cc1 [compound 1] | 0.93 | 0.92 | 1.03 | 1.01 | 1 | 0.98 | 1.32 | 1.45 fold | 1.36 | 1.06 | 1.17 | 0.9 | 1.05 | 1 | 0.98 | 0.89 | 0.93 |  |  |  | 
3 | NCCCNc1ccc(C(=O)NC(CCC(=O)O)C(=O)O)cc1 (stereo not drawn) [compound 7] |  |  |  |  | 1.09 |  |  |  |  |  |  |  |  |  |  |  |  | 1.01 | 1.02 | 1.05 | fold changes relative to vehicle control ([4]; HeLa, captured protein RNF160): 1.17; fold changes relative to vehicle control [6, 20]: 0.97; fold changes relative to vehicle control ([7]; HeLa, protein HSPD1): 1; fold changes relative to vehicle control ([8]; HeLa, protein PKM2): 0.94; fold changes relative to vehicle control ([9]; HeLa, captured protein PRDX2): 0.89; fold changes relative to vehicle control ([10]; HeLa, protein PHB): 0.96; fold changes relative to vehicle control ([11]; HeLa, protein TAGLN2): 0.92; fold changes relative to vehicle control ([12]; HeLa, captured protein TRIM25): 0.94; fold changes relative to vehicle control ([13]; HeLa, protein RBBP7): 0.98; fold changes relative to vehicle control ([14]; HeLa, protein TIMM50): 0.97; fold changes relative to vehicle control ([15]; HeLa, protein KIAA1618): 1; fold changes relative to vehicle control ([16]; HeLa, protein IPO9): 0.94; fold changes relative to vehicle control ([17]; protein NUP85, HeLa): 0.95
4 | CCCCCCOc1cccc(Cc2cnc(N)nc2N)c1 [compound 2] | 1.24 | 0.97 | 0.92 | 1.08 | 0.83 | 0.39 | 1.71 | 2.57 fold | 2.19 | 0.99 | 1.66 | 1.07 | 1.47 | 1.04 | 0.95 | 1.14 | 0.96 |  |  |  | 
5 | NCCOCCOCC(=O)Nc1nc2ncc(CNc3ccc(C(=O)NC(CCC(=O)O)C(=O)O)cc3)nc2c(=O)[nH]1 (stereo not drawn) [compound 6] |  |  |  |  | 1.07 |  |  |  |  |  |  |  |  |  |  |  |  | 0.96 | 0.79 | 0.98 | fold changes relative to vehicle control ([4]; HeLa, captured protein RNF160): 1.17; fold changes relative to vehicle control [6, 20]: 0.92; fold changes relative to vehicle control ([7]; HeLa, protein HSPD1): 1.21; fold changes relative to vehicle control ([8]; HeLa, protein PKM2): 1.29; fold changes relative to vehicle control ([9]; HeLa, captured protein PRDX2): 1.18; fold changes relative to vehicle control ([10]; HeLa, protein PHB): 0.99; fold changes relative to vehicle control ([11]; HeLa, protein TAGLN2): 1.2; fold changes relative to vehicle control ([12]; HeLa, captured protein TRIM25): 0.98; fold changes relative to vehicle control ([13]; HeLa, protein RBBP7): 1.18; fold changes relative to vehicle control ([14]; HeLa, protein TIMM50): 0.96; fold changes relative to vehicle control ([15]; HeLa, protein KIAA1618): 1.21; fold changes relative to vehicle control ([16]; HeLa, protein IPO9): 1; fold changes relative to vehicle control ([17]; protein NUP85, HeLa): 0.93
6 | Nc1nc2[nH]cc(CCc3ccc(C(=O)N[C@@H](CCC(=O)O)C(=O)O)cc3)c2c(=O)[nH]1 [PTX, pemetrexed] |  |  |  |  |  |  |  |  |  |  |  |  |  |  |  |  |  |  |  |  | fold changes relative to vehicle control [1]: 0.92; fold changes relative to vehicle control [2]: 0.83; fold changes relative to vehicle control [3]: 1.06; fold changes relative to vehicle control [4]: 1.09; fold changes relative to vehicle control [5]: 1; fold changes relative to vehicle control [6]: 0.96; fold changes relative to vehicle control [7]: 1.14; fold changes relative to vehicle control [8]: 1.09; fold changes relative to vehicle control [9]: 1.17; fold changes relative to vehicle control [10]: 0.92; fold changes relative to vehicle control [11]: 1.18; fold changes relative to vehicle control [12]: 0.87; fold changes relative to vehicle control [13]: 1.04; fold changes relative to vehicle control [14]: 0.87; fold changes relative to vehicle control [15]: 1.01; fold changes relative to vehicle control [16]: 0.91; fold changes relative to vehicle control [17]: 0.9
